Results as given in publication PMC9292215 (Clinical Pharmacology and Therapeutics, 2021).

Tests used:
[1] = Plasma pharmacokinetics of BIA 10-2474 and metabolites; format: in vivo, human
FAAH = target: T1, FAAH (Homo sapiens, UniProt O00519); conditions: cited from earlier work
T1 sequence (O00519 1-579): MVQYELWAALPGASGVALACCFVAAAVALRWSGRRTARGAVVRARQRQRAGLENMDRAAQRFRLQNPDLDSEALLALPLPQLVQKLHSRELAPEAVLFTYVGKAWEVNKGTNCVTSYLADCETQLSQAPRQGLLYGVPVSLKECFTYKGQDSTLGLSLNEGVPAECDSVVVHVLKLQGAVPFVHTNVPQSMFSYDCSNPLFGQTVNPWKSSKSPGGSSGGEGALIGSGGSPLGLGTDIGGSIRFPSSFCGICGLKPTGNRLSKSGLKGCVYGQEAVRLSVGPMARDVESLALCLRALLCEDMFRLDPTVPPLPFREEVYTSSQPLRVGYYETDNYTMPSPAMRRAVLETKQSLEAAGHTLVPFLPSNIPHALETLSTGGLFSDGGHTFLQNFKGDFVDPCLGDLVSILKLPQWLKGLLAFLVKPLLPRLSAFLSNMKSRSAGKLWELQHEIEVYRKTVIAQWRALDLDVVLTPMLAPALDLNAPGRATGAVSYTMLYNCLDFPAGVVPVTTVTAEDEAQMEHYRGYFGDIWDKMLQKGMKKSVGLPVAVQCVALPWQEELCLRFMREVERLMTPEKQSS

[2] = cited from earlier work
[3] = 20 mg BIA 10-2474 once daily, Day 10
[4] = after single dose 40 mg BIA 10-2474
[5] = after single dose 100 mg BIA 10-2474
[6] = repeated dose levels below 20 mg for 10 days
[7] = 20 mg BIA 10-2474 once daily, Day 1

| AUC0–t of metabolite [1, 3] | Cmax of metabolite [1, 3] | tmax of metabolite [1, 3] | AUC0-t of metabolite [1, 4] | Cmax of metabolite [1, 4] | tmax of metabolite [1, 4] | AUC0-t of metabolite [1, 5] | Cmax of metabolite [1, 5] | tmax of metabolite [1, 5] | plasma abundance of metabolite [1, 6] | plasma abundance of metabolite ([1]; single dose levels below 40 mg) | SMILES | tested dose as multiple of the dose required for complete FAAH inhibition (FAAH) | other results |
| --- | --- | --- | --- | --- | --- | --- | --- | --- | --- | --- | --- | --- | --- |
| 105 (64.7) ng⋅hour/mL | 8.27 (3.42) ng/mL | 4.0 (4.0–12.0) hour | 51.3 (71.4) ng hour/mL | 4.66 (44.7) ng/mL | 12.0 (3.0–24.0) hour | 303 (68.3) ng hour/mL | 11.4 (27.1) ng/mL | 12.0 (3.0–24.0) hour | undetectable | undetectable | CN(C(=O)n1cnc(-c2cccnc2)c1)C1CCCCC1 [BIA 10-2445] |  |  |
| 203 (197) ng⋅hour/mL | 7.41 (3.9) ng/mL | 4.0 (2.0–24.0) hour |  |  |  | 359 (36.3) ng hour/mL | 7.1 (30.9) ng/mL | 18.0 (2.0–24.0) hour | undetectable | undetectable | CN(C(=O)n1cnc(-c2cccnc2)c1)[C@H]1CC[C@H](O)CC1 [BIA 10-2631, N-(trans-4-hydroxycyclohexyl)-N-methyl-4-pyridin-3-yl-1H-imidazole-1-carboxamide] |  |  |
|  |  |  |  |  |  |  |  |  | undetectable | undetectable | O=C(NC1CCCCC1)n1cnc(-c2ccc[n+]([O-])c2)c1 [BIA 10-2583] |  |  |
| 47.3 (20.6) ng⋅hour/mL | 5.8 (1.7) ng/mL | 1.0 (1.0–2.0) hour | 59.2 (30.6) ng hour/mL | 8.09 (30.7) ng/mL | 2.0 (1.0–3.0) hour | 206 (40.7) ng hour/mL | 19.6 (29.1) ng/mL | 2.0 (1.0–3.0) hour | undetectable | undetectable | CN(C(=O)n1cnc(-c2ccc[n+]([O-])c2)c1)[C@H]1CC[C@H](O)CC1 [BIA 10-2639, N-(trans-4-hydroxycyclohexyl)-N-methyl-4-(1-oxidopyridin-3-yl)l-1H-imidazole-1-carboxamide] |  | AUC0–t of metabolite [1, 7]: 21.8 (6.8) ng⋅hour/mL; AUC0–∞ of metabolite [1, 7]: 26.6 (8.5) ng⋅hour/mL; Cmax of metabolite [1, 7]: 4.1 (0.5) ng/mL; t1/2 of metabolite [1, 7]: 9.94 (1.79) h; tmax of metabolite [1, 7]: 1.0 (1.0–2.0) hour; t1/2 of metabolite [1, 4]: 9.78 (67.1) hour; AUC0-∞ of metabolite [1, 5]: 271 (35.6) ng hour/mL; t1/2 of metabolite [1, 5]: 9.20 (15.2) hour |
|  |  |  |  |  |  |  |  |  |  |  | O=C(Nc1cnccc1Cl)N1CCN(Cc2ccc3c(c2)OC(F)(F)O3)CC1 [JNJ-42165279] | at least 10 times | duration of FAAH inhibition (FAAH): > 24 h; half-life [2]: 8 to 14 h |
|  |  |  |  |  |  |  |  |  |  |  | O=C(Nc1cccnn1)N1CCC(=Cc2cccc(Oc3ccc(C(F)(F)F)cn3)c2)CC1 [PF-04457845] | 133 times | FAAH inhibition (FAAH; for 6 days or more): more than 90% |
